Reference: PubChem BioAssay (NCI)
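GI50 = concentration required for 50% inhibition of growth. TGI: concentration producing complete growth inhibition.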

Experiments:
Assay in all cases: growth of human tumour cells (NCI), 384-well format
HT29 colon = test system: HT29 colon
CAKI-1 renal = test system: CAKI-1 renal
RXF 393 renal = test system: RXF 393 renal
NCI-H322M lung = test system: NCI-H322M lung
SF-268 CNS = test system: SF-268 CNS
COLO 205 colon = test system: COLO 205 colon
HS 578T breast = test system: HS 578T breast
NCI-H226 lung = test system: NCI-H226 lung
HCC-2998 colon = test system: HCC-2998 colon
MDA-MB-435 melanoma = test system: MDA-MB-435 melanoma
BT-549 breast = test system: BT-549 breast
A498 renal = test system: A498 renal
KM12 colon = test system: KM12 colon
SK-MEL-5 melanoma = test system: SK-MEL-5 melanoma
MOLT-4 leukemia = test system: MOLT-4 leukemia
HOP-92 NSCLC = test system: HOP-92 NSCLC
UACC-257 melanoma = test system: UACC-257 melanoma
K-562 leukemia = test system: K-562 leukemia
SF-295 CNS = test system: SF-295 CNS
DU-145 prostate = test system: DU-145 prostate
NCI/ADR-RES ovarian = test system: NCI/ADR-RES ovarian
NCI-H460 NSCLC = test system: NCI-H460 NSCLC
SK-OV-3 ovarian = test system: SK-OV-3 ovarian
TK-10 renal = test system: TK-10 renal
SN12C renal = test system: SN12C renal
SR leukemia = test system: SR leukemia
PC-3 prostate = test system: PC-3 prostate
NCI-H522 lung = test system: NCI-H522 lung
SW-620 colon = test system: SW-620 colon
UACC-62 melanoma = test system: UACC-62 melanoma
SF-539 CNS = test system: SF-539 CNS
IGROV1 ovarian = test system: IGROV1 ovarian
SNB-19 CNS = test system: SNB-19 CNS
A549 NSCLC = test system: A549 NSCLC
MDA-MB-231 breast = test system: MDA-MB-231 breast
SNB-75 CNS = test system: SNB-75 CNS
ACHN renal = test system: ACHN renal
T-47D breast = test system: T-47D breast
UO-31 renal = test system: UO-31 renal
LOX IMVI melanoma = test system: LOX IMVI melanoma
EKVX NSCLC = test system: EKVX NSCLC
OVCAR-5 ovarian = test system: OVCAR-5 ovarian
HCT-15 colon = test system: HCT-15 colon
RPMI-8226 leukemia = test system: RPMI-8226 leukemia
HOP-62 NSCLC = test system: HOP-62 NSCLC
M14 melanoma = test system: M14 melanoma
OVCAR-8 ovarian = test system: OVCAR-8 ovarian
OVCAR-3 ovarian = test system: OVCAR-3 ovarian
SK-MEL-28 melanoma = test system: SK-MEL-28 melanoma
MCF7 breast = test system: MCF7 breast
MDA-MB-468 breast = test system: MDA-MB-468 breast
HL-60(TB) leukemia = test system: HL-60(TB) leukemia
MALME-3M melanoma = test system: MALME-3M melanoma
CCRF-CEM leukemia = test system: CCRF-CEM leukemia
NCI-H23 lung = test system: NCI-H23 lung
786-0 renal = test system: 786-0 renal
OVCAR-4 ovarian = test system: OVCAR-4 ovarian

For `CCc1cc2ncc(CN3CCN(c4ccc(C(=O)NC)nc4)CC3)cc2[nH]c1=O`, the GI50 (HT29 colon) was 80.1 µM, the TGI (HT29 colon) was > 100 µM and the GI50 (CAKI-1 renal) was 34.5 µM. The TGI (CAKI-1 renal) was > 100 µM, the GI50 (RXF 393 renal) was > 100 µM and the TGI (RXF 393 renal) was > 100 µM. The GI50 (NCI-H322M lung) was > 100 µM, the TGI (NCI-H322M lung) was > 100 µM and the GI50 (SF-268 CNS) was 93.1 µM. For the same molecule, the TGI (SF-268 CNS) was > 100 µM, the GI50 (COLO 205 colon) was 68.5 µM and the TGI (COLO 205 colon) was > 100 µM. For the same molecule, the GI50 (HS 578T breast) was 18.9 µM, the TGI (HS 578T breast) was > 100 µM and the GI50 (NCI-H226 lung) was 53.1 µM. The TGI (NCI-H226 lung) was > 100 µM, the GI50 (HCC-2998 colon) was 20.2 µM and the TGI (HCC-2998 colon) was > 100 µM. For the same molecule, the GI50 (MDA-MB-435 melanoma) was > 100 µM, the TGI (MDA-MB-435 melanoma) was > 100 µM and the GI50 (BT-549 breast) was 29.7 µM. The TGI (BT-549 breast) was > 100 µM, the GI50 (A498 renal) was > 100 µM and the TGI (A498 renal) was > 100 µM. The GI50 (KM12 colon) was > 100 µM, the TGI (KM12 colon) was > 100 µM and the GI50 (SK-MEL-5 melanoma) was > 100 µM. For the same molecule, the TGI (SK-MEL-5 melanoma) was > 100 µM, the GI50 (MOLT-4 leukemia) was 2.3 µM and the TGI (MOLT-4 leukemia) was 26.1 µM. The GI50 (HOP-92 NSCLC) was 25.9 µM, the TGI (HOP-92 NSCLC) was > 100 µM and the GI50 (UACC-257 melanoma) was > 100 µM. The TGI (UACC-257 melanoma) was > 100 µM, the GI50 (K-562 leukemia) was 74.6 µM and the TGI (K-562 leukemia) was > 100 µM. For the same molecule, the GI50 (SF-295 CNS) was 71 µM, the TGI (SF-295 CNS) was > 100 µM and the GI50 (DU-145 prostate) was > 100 µM. For the same molecule, the TGI (DU-145 prostate) was > 100 µM, the GI50 (NCI/ADR-RES ovarian) was > 100 µM and the TGI (NCI/ADR-RES ovarian) was > 100 µM. The GI50 (NCI-H460 NSCLC) was 2.5 µM, the TGI (NCI-H460 NSCLC) was > 100 µM and the GI50 (SK-OV-3 ovarian) was > 100 µM. For the same molecule, the TGI (SK-OV-3 ovarian) was > 100 µM, the GI50 (TK-10 renal) was > 100 µM and the TGI (TK-10 renal) was > 100 µM. The GI50 (SN12C renal) was 84 µM, the TGI (SN12C renal) was > 100 µM and the GI50 (SR leukemia) was 0.271 µM. For the same molecule, the TGI (SR leukemia) was 20.5 µM, the GI50 (PC-3 prostate) was > 100 µM and the TGI (PC-3 prostate) was > 100 µM. The GI50 (NCI-H522 lung) was 48.4 µM, the TGI (NCI-H522 lung) was > 100 µM and the GI50 (SW-620 colon) was > 100 µM. For the same molecule, the TGI (SW-620 colon) was > 100 µM, the GI50 (UACC-62 melanoma) was > 100 µM and the TGI (UACC-62 melanoma) was > 100 µM. For the same molecule, the GI50 (SF-539 CNS) was > 100 µM, the TGI (SF-539 CNS) was > 100 µM and the GI50 (IGROV1 ovarian) was 60.1 µM. The TGI (IGROV1 ovarian) was > 100 µM, the GI50 (SNB-19 CNS) was > 100 µM and the TGI (SNB-19 CNS) was > 100 µM. The GI50 (A549 NSCLC) was 52.6 µM, the TGI (A549 NSCLC) was > 100 µM and the GI50 (MDA-MB-231 breast) was 30.5 µM. The TGI (MDA-MB-231 breast) was > 100 µM, the GI50 (SNB-75 CNS) was > 100 µM and the TGI (SNB-75 CNS) was > 100 µM. For the same molecule, the GI50 (ACHN renal) was 70.5 µM, the TGI (ACHN renal) was > 100 µM and the GI50 (T-47D breast) was 22 µM. The TGI (T-47D breast) was > 100 µM, the GI50 (UO-31 renal) was > 100 µM and the TGI (UO-31 renal) was > 100 µM. The GI50 (LOX IMVI melanoma) was 23.9 µM, the TGI (LOX IMVI melanoma) was > 100 µM and the GI50 (EKVX NSCLC) was 78.6 µM. The TGI (EKVX NSCLC) was > 100 µM, the GI50 (OVCAR-5 ovarian) was > 100 µM and the TGI (OVCAR-5 ovarian) was > 100 µM. For the same molecule, the GI50 (HCT-15 colon) was 50 µM, the TGI (HCT-15 colon) was > 100 µM and the GI50 (RPMI-8226 leukemia) was 3.3 µM. For the same molecule, the TGI (RPMI-8226 leukemia) was 52.4 µM, the GI50 (HOP-62 NSCLC) was 26.1 µM and the TGI (HOP-62 NSCLC) was > 100 µM. The GI50 (M14 melanoma) was > 100 µM, the TGI (M14 melanoma) was > 100 µM and the GI50 (OVCAR-8 ovarian) was 42.1 µM. The TGI (OVCAR-8 ovarian) was > 100 µM, the GI50 (OVCAR-3 ovarian) was 43.5 µM and the TGI (OVCAR-3 ovarian) was > 100 µM. The GI50 (SK-MEL-28 melanoma) was > 100 µM, the TGI (SK-MEL-28 melanoma) was > 100 µM and the GI50 (MCF7 breast) was 23.6 µM. The TGI (MCF7 breast) was > 100 µM, the GI50 (MDA-MB-468 breast) was 3.1 µM and the TGI (MDA-MB-468 breast) was 20.9 µM. The GI50 (HL-60(TB) leukemia) was 36 µM, the TGI (HL-60(TB) leukemia) was > 100 µM and the GI50 (MALME-3M melanoma) was 71.2 µM. The TGI (MALME-3M melanoma) was > 100 µM, the GI50 (CCRF-CEM leukemia) was 29.5 µM and the TGI (CCRF-CEM leukemia) was > 100 µM. The GI50 (NCI-H23 lung) was 87.2 µM, the TGI (NCI-H23 lung) was > 100 µM and the GI50 ([…]-0 renal) was 72.2 µM. The TGI (786-0 renal) was > 100 µM, the GI50 (OVCAR-4 ovarian) was 53.9 µM and the TGI (OVCAR-4 ovarian) was > 100 µM.
